Patent US20090281049A1, “New use of ginsenoside compound-k in manufacturing medicaments” (priority 2006, published 2009)

Columns and labels:
[1] = test system: Collagen Type II (CII) induced arthritis in rats; assay: Treatment effect on Collagen Type II (CII) induced arthritis in rats; type: in vivo, Rat, SD strain
Procedure: Inflammation-induced agent: Collagen Type II was dissolved in 0.1 mol/L acetic acid to make final concentration be 2 mg/ml collagen solution, and held in 4° C. overnight. The Collagen Type II solution was added to cold Freund's Adjuvant Incomplete by drops (Collagen Type II: Freund's Adjuvant Incomplete=1:1) on the next day, emulsified completely (Type II Collagen solution: Freund's Adjuvant Incomplete=1:1), and the final concentration of Collagen Type II was 1 mg/ml. The Collagen Type II emulsion was reserved in a refrigerator at 4° C.
Immune method: Each rat was immunized by being injected subcutaneously at 5 points on the back with 0.1 ml emulsion in each point, total of […] (contained 0.5 mg Collagen Type II), and immunized again in the same way 7 days later. An emulsion of 0.1 mol/L acetic acid and Freund's Adjuvant Incomplete was injected in control group. The swell values of the arthrosis in right hind ankle and foot were measured respectively by using a hydroplethismometer before injection and 20 days after immunization.
Collagen Type II (CII) and Freund's Adjuvant Incomplete were ground into emulsion and were injected subcutaneously into the back of the rats for immunization. Until the 19th day, most parts of the pedal joint of the rats began to swell. Picked 40 rats out which were with swelled pedal joint and divided them into […] subsequently, i.e. 8 rats in each group. They are respectively […]: Ginsenoside Compound-K, 10 mg/kg, iv, medium dose group: Ginsenoside Compound-K, 5 mg/kg, iv, small dose group: Ginsenoside Compound-K, 2.5 mg/kg, iv, Enbrel group: 9 mg/kg, sc, Tripterygium Wilfordii Hook group: 1.5 mg/kg, po. and blank control group: physiological saline 10 mg/kg, iv. The rats were administered for 8 days consecutively. The swell value of the foot was measured respectively by using hydroplethismometer before inflammation induced and at different time after the onset of symptoms, then calculated swell rate and prohibition rate, and compared the differences among groups with t test.

[2] = test system: Adjuvant Arthritis in rats; assay: Treatment effect on adjuvant induced adjuvant arthritis in rats; type: in vivo, Rat, SD strain
Procedure: Freund's Adjuvant Complete, purchased from Sigma Company, was injected into the plantar surface of the right hind paw by 0.1 ml in order to induce inflammation in rats.
Animals were firstly divided into large dose group: 10 mg/kg, iv, medium dose group: 5 mg/kg, iv, small dose group: 2.5 mg/kg, iv, Indomethacin group: 1 mg/kg, po, Tripterygium Wilfordii Hook group: 1.5 mg/kg, po. and blank control group: physiological saline 10 mg/kg, iv. The volume of the right hind paw of the rats was measured by using hydroplethismometer before inflammation induced. Then 0.1 ml Freund's Adjuvant Complete was injected into the plantar surface of the right hind paw in order to induce inflammation in rats. 20 days after inflammation induced, the rats were grouped by the foregoing division method and to be administered for 8 days. The volume of paw was measured in regular intervals. Swell rate and inhibition rate were calculated with the same method as the foregoing. Differences among groups were compared with t test.

CC(C)=CCC[C@](C)(O[C@@H]1O[C@H](CO)[C@@H](O)[C@H](O)[C@H]1O)[C@H]1CC[C@]2(C)[C@@H]1[C@H](O)C[C@@H]1[C@@]3(C)CC[C@H](O)C(C)(C)[C@@H]3CC[C@]12C [Ginsenoside Compound-K, ginsenoside Compound-K]
swell value ([1]; 2.5 mg/kg iv, 0 day): 1.03 ± 0.05 mL
inhibition rate ([1]; 2.5 mg/kg iv, 20 day): <18.95> %
swell rate ([1]; 2.5 mg/kg iv, 20 day): (43.79 ± 12.08%
swell value ([1]; 2.5 mg/kg iv, 20 day): 1.48 ± 0.11 mL
inhibition rate ([1]; 2.5 mg/kg iv, 22 day): <19.94> %
swell rate ([1]; 2.5 mg/kg iv, 22 day): (48.22 ± 10.27) %
swell value ([1]; 2.5 mg/kg iv, 22 day): 1.53 ± 0.06 mL
inhibition rate ([1]; 2.5 mg/kg iv, 23 day): <17.70> %
swell rate ([1]; 2.5 mg/kg iv, 23 day): (51.23 ± 9.82) %
swell value ([1]; 2.5 mg/kg iv, 23 day): 1.56 ± 0.06 mL
inhibition rate ([1]; 2.5 mg/kg iv, 25 day): <16.26> %
swell rate ([1]; 2.5 mg/kg iv, 25 day): (51.66 ± 18.36) %
swell value ([1]; 2.5 mg/kg iv, 25 day): 1.56 ± 0.16 mL
inhibition rate ([1]; 2.5 mg/kg iv, 28 day): <20.52> %
swell rate ([1]; 2.5 mg/kg iv, 28 day): (41.04 ± 10.92) %
swell value ([1]; 2.5 mg/kg iv, 28 day): 1.45 ± 0.10 mL
inhibition rate ([1]; 2.5 mg/kg iv, 31 day): <22.73> %
swell rate ([1]; 2.5 mg/kg iv, 31 day): (37.86 ± 11.18) %
swell value ([1]; 2.5 mg/kg iv, 31 day): 1.42 ± 0.10 mL
swell value ([1]; 5 mg/kg iv, 0 day): 1.03 ± 0.05 mL
inhibition rate ([1]; 5 mg/kg iv, 20 day): <9.35> %
swell rate ([1]; 5 mg/kg iv, 20 day): (48.97 ± 27.82%
swell value ([1]; 5 mg/kg iv, 20 day): 1.52 ± 0.21 mL
inhibition rate ([1]; 5 mg/kg iv, 22 day): <12.39> %
swell rate ([1]; 5 mg/kg iv, 22 day): (52.77 ± 21.55) %
swell value ([1]; 5 mg/kg iv, 22 day): 1.56 ± 0.15 mL
inhibition rate ([1]; 5 mg/kg iv, 23 day): <13.87> %
swell rate ([1]; 5 mg/kg iv, 23 day): (53.62 ± 14.27) %
swell value ([1]; 5 mg/kg iv, 23 day): 1.58 ± 0.13 mL
inhibition rate ([1]; 5 mg/kg iv, 25 day): <15.62> %
swell rate ([1]; 5 mg/kg iv, 25 day): (52.06 ± 18.56) %
swell value ([1]; 5 mg/kg iv, 25 day): 1.56 ± 0.19 mL
inhibition rate ([1]; 5 mg/kg iv, 28 day): <13.17> %
swell rate ([1]; 5 mg/kg iv, 28 day): (44.84 ± 25.91) %
swell value ([1]; 5 mg/kg iv, 28 day): 1.49 ± 0.28 mL
inhibition rate ([1]; 5 mg/kg iv, 31 day): <15.64> %
swell rate ([1]; 5 mg/kg iv, 31 day): (41.34 ± 13.83) %
swell value ([1]; 5 mg/kg iv, 31 day): 1.45 ± 0.13 mL
swell value ([1]; 10 mg/kg iv, 0 day): 1.04 ± 0.19 mL
inhibition rate ([1]; 10 mg/kg iv, 20 day): <12.61> %
swell rate ([1]; 10 mg/kg iv, 20 day): (47.22 ± 18.60) %
swell value ([1]; 10 mg/kg iv, 20 day): <1.52 ± 0.19 mL
inhibition rate ([1]; 10 mg/kg iv, 22 day): <16.28> %
swell rate ([1]; 10 mg/kg iv, 22 day): (50.43 ± 9.45) %
swell value ([1]; 10 mg/kg iv, 22 day): 1.54 ± 0.12 mL
inhibition rate ([1]; 10 mg/kg iv, 23 day): <19.28> %
swell rate ([1]; 10 mg/kg iv, 23 day): (50.25 ± 22.06) %
swell value ([1]; 10 mg/kg iv, 23 day): 1.54 ± 0.10 mL
inhibition rate ([1]; 10 mg/kg iv, 25 day): <17.95> %
swell rate ([1]; 10 mg/kg iv, 25 day): (50.62 ± 21.43) %
swell value ([1]; 10 mg/kg iv, 25 day): 1.54 ± 0.12 mL
inhibition rate ([1]; 10 mg/kg iv, 28 day): <22.09> %
swell rate ([1]; 10 mg/kg iv, 28 day): (40.23 ± 16.26) %
swell value ([1]; 10 mg/kg iv, 28 day): 1.44 ± 0.13 mL
inhibition rate ([1]; 10 mg/kg iv, 31 day): <27.67> %
swell rate ([1]; 10 mg/kg iv, 31 day): (35.44 ± 22.50) %
swell value ([1]; 10 mg/kg iv, 31 day): 1.38 ± 0.11 mL
overall treatment effect on Collagen Type II induced arthritis ([1]; rats, 10, 5, 2.5 mg/kg iv for 8 days): able to cure Collagen Type II induced arthritis
swell value ([2]; 2.5 mg/kg iv, 0 day): 1.06 ± 0.09 mL
inhibition rate ([2]; 2.5 mg/kg iv, 19 day): <14.36> %
swell rate ([2]; 2.5 mg/kg iv, 19 day): (84.26 ± 14.31) %
swell value ([2]; 2.5 mg/kg iv, 19 day): 1.96 ± 0.16 mL
inhibition rate ([2]; 2.5 mg/kg iv, 21 day): <15.81> %
swell rate ([2]; 2.5 mg/kg iv, 21 day): (89.42 ± 18.47) %
swell value ([2]; 2.5 mg/kg iv, 21 day): 2.00 ± 0.07 mL
inhibition rate ([2]; 2.5 mg/kg iv, 23 day): <24.02> %
swell rate ([2]; 2.5 mg/kg iv, 23 day): (80.92 ± 16.84) %
swell value ([2]; 2.5 mg/kg iv, 23 day): 1.91 ± 0.08 mL
inhibition rate ([2]; 2.5 mg/kg iv, 26 day): <27.71> %
swell rate ([2]; 2.5 mg/kg iv, 26 day): (81.13 ± 10.03) %
swell value ([2]; 2.5 mg/kg iv, 26 day): 1.92 ± 0.08 mL
inhibition rate ([2]; 2.5 mg/kg iv, 30 day): <19.36> %
swell rate ([2]; 2.5 mg/kg iv, 30 day): (84.80 ± 19.66) %
swell value ([2]; 2.5 mg/kg iv, 30 day): 1.96 ± 0.16 mL
swell value ([2]; 5 mg/kg iv, 0 day): 1.10 ± 0.09 mL
inhibition rate ([2]; 5 mg/kg iv, 19 day): <17.31> %
swell rate ([2]; 5 mg/kg iv, 19 day): (81.36 ± 13.10) %
swell value ([2]; 5 mg/kg iv, 19 day): 2.00 ± 0.12 mL
inhibition rate ([2]; 5 mg/kg iv, 21 day): <20.85> %
swell rate ([2]; 5 mg/kg iv, 21 day): (84.07 ± 18.91) %
swell value ([2]; 5 mg/kg iv, 21 day): 2.03 ± 0.20 mL
inhibition rate ([2]; 5 mg/kg iv, 23 day): <23.19> %
swell rate ([2]; 5 mg/kg iv, 23 day): (81.81 ± 14.58) %
swell value ([2]; 5 mg/kg iv, 23 day): 2.01 ± 0.23 mL
inhibition rate ([2]; 5 mg/kg iv, 26 day): <27.40> %
swell rate ([2]; 5 mg/kg iv, 26 day): (81.48 ± 11.30) %
swell value ([2]; 5 mg/kg iv, 26 day): 2.00 ± 0.19 mL
inhibition rate ([2]; 5 mg/kg iv, 30 day): <20.33> %
swell rate ([2]; 5 mg/kg iv, 30 day): (83.77 ± 17.65) %
swell value ([2]; 5 mg/kg iv, 30 day): 2.03 ± 0.25 mL
swell value ([2]; 10 mg/kg iv, 0 day): 1.05 ± 0.09 mL
inhibition rate ([2]; 10 mg/kg iv, 19 day): <9.69> %
swell rate ([2]; 10 mg/kg iv, 19 day): (88.85 ± 23.27) %
swell value ([2]; 10 mg/kg iv, 19 day): 1.97 ± 0.24 mL
inhibition rate ([2]; 10 mg/kg iv, 21 day): <31.57> %
swell rate ([2]; 10 mg/kg iv, 21 day): (72.69 ± 29.97) %
swell value ([2]; 10 mg/kg iv, 21 day): 1.81 ± 0.33 mL
inhibition rate ([2]; 10 mg/kg iv, 23 day): <31.92> %
swell rate ([2]; 10 mg/kg iv, 23 day): (72.50 ± 22.18) %
swell value ([2]; 10 mg/kg iv, 23 day): 1.80 ± 0.21 mL
inhibition rate ([2]; 10 mg/kg iv, 26 day): <36.15> %
swell rate ([2]; 10 mg/kg iv, 26 day): (71.66 ± 24.46) %
swell value ([2]; 10 mg/kg iv, 26 day): 1.79 ± 0.24 mL
inhibition rate ([2]; 10 mg/kg iv, 30 day): <32.32> %
swell rate ([2]; 10 mg/kg iv, 30 day): (71.17 ± 17.97) %
swell value ([2]; 10 mg/kg iv, 30 day): 1.80 ± 0.26 mL
overall treatment effect on Adjuvant Arthritis ([2]; rats, 10, 5, 2.5 mg/kg iv for 8 days from day 20): able to cure Adjuvant Arthritis in rats
